Results: patent US8343536B2, “Biofilm-inhibiting medical products” (Cook Biotech Incorporated, priority 2007, dated 2013)

Key:
Format in all cases: cell-based
[1] = test system: E. coli (ATCC #25922); assay: Zone-of-inhibition, ranked, bismuth thiol coated SIS discs (Example 1); conditions: 24 hours
Description: (§1) Seven bismuth thiol compounds (50 mg each) were obtained from Microbion, Inc. (Bozeman, Mont.). These compounds included 2 preparations of bismuth-1,2-ethanedithiol (BisEDT) (Molar ratio 1:1.5), 2 preparations of bismuth-2,3-dimercaptopropanol (BisBAL) (1:1 and 1:1.5), bismuth dithioethylhritol (BisERY) (1:1.5), bismuth-3,4-dimercatotoluene (BisTOL) (1:1.5) and bismuth butanedithiol (BisBDT) (1:1.5). Purified small intestinal submucosa (SIS) (Cook Biotech Incorporated, West Lafayette, Ind.) was made into wetted 4-layer constructs which were laminated together by lyophilization and subsequently cut into 15 mm discs (˜1.76 cm^2) using a disc punch. Bismuth thiols were resuspended in dimethyl sulfoxide (DMSO) and diluted to appropriate concentrations for coating. Discs were coated with the bismuth thiol solutions at three final concentrations using 17.6 μl of the appropriate solution per disc for a final concentration of 1, 10, or 100 μg/cm^2. The discs were subsequently placed in a lyophilizer overnight to remove the DMSO solvent. Control discs were prepared using 17.6 μl of DMSO without a bismuth thiol preparation. 3 bacteria were used for this experiment: S. aureus (ATCC #25983), P. aeruginosa (ATCC #27853), and E. coli (ATCC #25922). Bacteria was grown in Tryptic Soy Broth for 16-24 hours before placing a lawn on Tryptic Soy Agar in 100 mm Petri dishes.
(§2) Sixty six samples were tested in total (7 bismuth thiol preparations 3 doses=21+1 control=22×3 bacteria=66). A lawn of one of the three bacteria investigated was swabbed onto the Tryptic Soy Agar. The bismuth thiol coated disc was placed approximately in the center of the plate and rehydrated with ˜50 μl of sterile saline. Plates were incubated inverted for 24 hours at which time pictures were taken with a digital camera. Zones-of-inhibition were categorized by the approximate distance of bacterial growth inhibition from the disc edge. The effectiveness was ranked as follows: (−) for no growth retardation, (+) for growth retardation at <1 mm from disc edge, (++) for growth retardation 1-3 mm from disc edge, and (+++) for growth retardation greater than 3 mm from disc edge. Results are shown below in Tables 2-4.

[2] = test system: P. aeruginosa (ATCC #27853); assay: as above; conditions: 24 hours
Description: as §1, §2

[3] = test system: S. aureus (ATCC #25983); assay: as above; conditions: 24 hours
Description: as §1, §2

[4] = test system: E. coli (ATCC #25922); assay: Zone-of-inhibition measured by image analysis, coated SIS discs (Example 2); conditions: 10 μg/cm^2 on SIS disc, 24 hours, n=3
Description: (§3) BisEDT (Molar ratio 1:1.5), BisBAL (1:1.5), and BisERY (1:1.5) (50 mg each) were obtained from Microbion, Inc. Small intestinal submucosa (SIS) was obtained and processed into 4-layer lyophilized sheets as described in Example 1. The sheets were subsequently cut into 15 mm discs (˜1.76 cm^2) using a disc punch. Bismuth thiols were resuspended in dimethyl sulfoxide (DMSO) and diluted to 0.35 μg/μl for coating. Discs were coated with the bismuth thiol solutions 50 μl of the appropriate solution per disc for a final concentration 10 μg/cm^2 (0.35 μg/μl*50 μl=17.5 μg/1.76 cm^2=10 μg/cm^2). The discs were subsequently placed in a lyophilizer overnight to remove the DMSO solvent. Control discs were prepared using 50 μl of DMSO without a bismuth thiol preparation. 3 bacteria were used for this experiment: S. aureus (ATCC #25983), P. aeruginosa (ATCC #27853), and E. coli (ATCC #25922). Bacteria was grown in Tryptic Soy Broth for 16-24 hours before placing a lawn on Tryptic Soy Agar in 100 mm Petri dishes.
(§4) Thirty samples were tested in total (3 bismuth thiol preparations @ n=3→9+1 control=10×3 bacteria=30). A lawn of one of the three bacteria investigated was swabbed onto the Tryptic Soy Agar. The bismuth thiol coated disc was rehydrated for ˜5 minutes in sterile saline and placed approximately in the center of the plate. Plates were incubated inverted for 24 hours at which time pictures were taken with a digital camera. Zones-of-inhibition were measured using image analysis software (Spot RT) by determining the distance of bacterial growth inhibition from the disc edge.

[5] = test system: P. aeruginosa (ATCC #27853); assay: as above; conditions: 10 μg/cm^2 on SIS disc, 24 hours, n=3
Description: as §3, §4

[6] = test system: S. aureus (ATCC #25983); assay: as above; conditions: 10 μg/cm^2 on SIS disc, 24 hours, n=3
Description: as §3, §4

[7] = test system: S. aureus (ATCC #25983); assay: Zone-of-inhibition after various rehydration times of coated SIS discs (Example 3)
Description: BisEDT (Molar ratio 1:1.5) and BisBAL (1:1.5) (50 mg each) were obtained from Microbion, Inc. Small intestinal submucosa (SIS) was obtained and processed into 4-layer lyophilized sheets as described in Example 1. The sheets were subsequently cut into 15 mm discs (˜1.76 cm^2) using a disc punch. Bismuth thiols were resuspended in dimethyl sulfoxide (DMSO) and diluted to appropriate concentrations for coating. Discs were coated with the bismuth thiol solutions at a final concentration of 0.35 μg/μl using 50 μl of the solution per disc for a final concentration of 10 μg/cm^2. The discs were subsequently placed in a lyophilizer overnight to remove the DMSO solvent. S. aureus (ATCC #25983) was used as the bacteria for this experiment. Bacteria was grown in Tryptic Soy Broth for 16-24 hours before placing a lawn on Tryptic Soy Agar in 100 mm Petri dishes.
Thirty six samples were tested in total (2 BT*n=3→6*6 rehydration times→36). A lawn of S. aureus was swabbed onto the Tryptic Soy Agar. For the 0 rehydration time point, the bismuth thiol coated disc was placed approximately in the center of the plate and rehydrated with ˜50 μl of sterile saline. Other rehydration times were varied at 5, 10, 20, 30, or 60 minutes. For this, the samples were placed in sterile saline and a timer set for each time. At the appropriate time, samples were removed from the saline and placed approximately in the center of the plate. Plates were incubated inverted for 24 hours at which time pictures were taken with a digital camera. Zones-of-inhibition were compared visually between groups.

Compound | Zone-of-inhibition rank (E. coli) ([1]; 1 μg/cm^2 on SIS disc) | Zone-of-inhibition rank (E. coli) ([1]; 10 μg/cm^2 on SIS disc) | Zone-of-inhibition rank (E. coli) ([1]; 100 μg/cm^2 on SIS disc) | Zone-of-inhibition rank (P. aeruginosa) ([2]; 1 μg/cm^2 on SIS disc) | Zone-of-inhibition rank (P. aeruginosa) ([2]; 10 μg/cm^2 on SIS disc) | Zone-of-inhibition rank (P. aeruginosa) ([2]; 100 μg/cm^2 on SIS disc) | Zone-of-inhibition rank (S. aureus) ([3]; 1 μg/cm^2 on SIS disc) | Zone-of-inhibition rank (S. aureus) ([3]; 10 μg/cm^2 on SIS disc) | Zone-of-inhibition rank (S. aureus) ([3]; 100 μg/cm^2 on SIS disc) | Zone-of-inhibition, distance of bacterial growth inhibition from the disc edge [4] | Zone-of-inhibition, distance of bacterial growth inhibition from the disc edge [5] | Zone-of-inhibition, distance of bacterial growth inhibition from the disc edge [6] | Effect of rehydration time on zone-of-inhibition, visual comparison ([7]; 10 μg/cm^2, rehydration 0-60 minutes in sterile saline) | Zone-of-inhibition, visual ([7]; 10 μg/cm^2 on SIS disc, rehydration 0, 5, 10, 20, 30 or 60 minutes)
bismuth-3,4-dimercatotoluene [Bis TOL] | − | − | − | − | − | − | − | + ((+) for growth retardation at <1 mm from disc edge) | + ((+) for growth retardation at <1 mm from disc edge) |  |  |  |  | 
OCC(S)CS.[Bi] (stereo not shown) [Bis BAL1, bismuth-2,3-dimercaptopropanol] | − | ++ ((++) for growth retardation 1-3 mm from disc edge) | +++ ((+++) for growth retardation greater than 3 mm from disc edge) | − | + ((+) for growth retardation at <1 mm from disc edge) | +++ ((+++) for growth retardation greater than 3 mm from disc edge) | + ((+) for growth retardation at <1 mm from disc edge) | +++ ((+++) for growth retardation greater than 3 mm from disc edge) | +++ ((+++) for growth retardation greater than 3 mm from disc edge) |  |  |  |  | 
bismuth dithioethylhritol [Bis ERY] | − | ++ ((++) for growth retardation 1-3 mm from disc edge) | +++ ((+++) for growth retardation greater than 3 mm from disc edge) | − | ++ ((++) for growth retardation 1-3 mm from disc edge) | +++ ((+++) for growth retardation greater than 3 mm from disc edge) | − | ++ ((++) for growth retardation 1-3 mm from disc edge) | +++ ((+++) for growth retardation greater than 3 mm from disc edge) |  |  |  |  | 
OCC(S)CS.[Bi] (stereo not shown) [BisBAL, bismuth-2,3-dimercaptopropanol] |  |  |  |  |  |  |  |  |  | 1.50 | 0.16 | 7.27 | no visual differences between the rehydration time points | significant effectiveness in creating a zone-of-inhibition
OCC(S)CS.[Bi] (stereo not shown) [Bis BAL2, bismuth-2,3-dimercaptopropanol] | − | ++ ((++) for growth retardation 1-3 mm from disc edge) | +++ ((+++) for growth retardation greater than 3 mm from disc edge) | − | + ((+) for growth retardation at <1 mm from disc edge) | +++ ((+++) for growth retardation greater than 3 mm from disc edge) | + ((+) for growth retardation at <1 mm from disc edge) | +++ ((+++) for growth retardation greater than 3 mm from disc edge) |  |  |  |  |  | 
bismuth-1,2-ethanedithiol [Bis EDT1] | − | − | + ((+) for growth retardation at <1 mm from disc edge) | − | + ((+) for growth retardation at <1 mm from disc edge) | + ((+) for growth retardation at <1 mm from disc edge) | + ((+) for growth retardation at <1 mm from disc edge) | ++ ((++) for growth retardation 1-3 mm from disc edge) | +++ ((+++) for growth retardation greater than 3 mm from disc edge) |  |  |  |  | 
bismuth-1,2-ethanedithiol [Bis EDT2] | − | + ((+) for growth retardation at <1 mm from disc edge) | + ((+) for growth retardation at <1 mm from disc edge) | − | − | ++ ((++) for growth retardation 1-3 mm from disc edge) | ++ ((++) for growth retardation 1-3 mm from disc edge) | ++ ((++) for growth retardation 1-3 mm from disc edge) | +++ ((+++) for growth retardation greater than 3 mm from disc edge) |  |  |  |  | 
bismuth butanedithiol [Bis BDT] | − | ++ ((++) for growth retardation 1-3 mm from disc edge) | ++ ((++) for growth retardation 1-3 mm from disc edge) | − | + ((+) for growth retardation at <1 mm from disc edge) | ++ ((++) for growth retardation 1-3 mm from disc edge) | − | ++ ((++) for growth retardation 1-3 mm from disc edge) | +++ ((+++) for growth retardation greater than 3 mm from disc edge) |  |  |  |  | 
